Data from publication PMC6707612, “Cyclic-di-GMP binds to histidine kinase RavS to control RavS-RavR phosphotransfer and regulates the bacterial lifestyle transition between virulence and swimming” (PLoS Pathogens, 2019).
Entries after “also recorded” stand apart in the source; their conditions may differ.

Experiments:
[1] = target: EAL domain of RavR (Xanthomonas campestris pv. campestris); test: SEC + AUC; purified EAL protein, 15 uM, incubated with 300 uM c-di-GMP in phosphodiesterase reaction buffer (50 mM Tris-HCl pH 7.5, 250 mM NaCl, 25 mM KCl, 10 mM MgCl2, 2 mM DTT) at 4 C for 30 min; Superdex 75 10/300 GL to separate dimer and monomer; molecular weight of each fraction determined by analytical ultracentrifugation
RavS^ΔN = target: T1, RavS^ΔN (Xanthomonas campestris pv. campestris, UniProt Q8P9A6); test: in vitro RavS-RavR phosphotransfer assay (RavS~P level by autoradiography); type: biochemical; conditions: specificity control nucleotides
T1 sequence (Q8P9A6 352-697): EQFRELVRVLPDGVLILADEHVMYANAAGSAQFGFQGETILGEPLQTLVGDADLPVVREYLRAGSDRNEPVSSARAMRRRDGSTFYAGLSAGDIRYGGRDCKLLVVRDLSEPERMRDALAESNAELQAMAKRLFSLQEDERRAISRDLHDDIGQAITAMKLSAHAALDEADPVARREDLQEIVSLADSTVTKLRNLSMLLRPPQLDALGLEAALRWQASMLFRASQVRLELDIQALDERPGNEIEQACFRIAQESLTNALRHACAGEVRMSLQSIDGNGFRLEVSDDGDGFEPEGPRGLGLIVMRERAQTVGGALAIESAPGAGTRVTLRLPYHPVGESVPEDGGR
Description: (a) c-di-GMP enhances RavS-RavR phosphotransfer in vitro. A total of 5 μM RavS^ΔN was autophosphorylated for 15 min by the addition of 10 μCi [γ-^32P]ATP. A total of 15 μM RavR^ΔEAL or RavR^ΔEAL(D496A) was added and incubated for 30 min at 25°C. A total of 100 μM c-di-GMP was added if necessary. The reactions were terminated with 5× SDS loading buffer before autoradiography. The experiment was repeated three times. (b) Time course analyses of the impact of c-di-GMP on the velocity of RavS-RavR phosphotransfer. The autophosphorylation and phosphotransfer reactions were set as mentioned in (a). Various concentrations of c-di-GMP were added to the reactions and isotopic signals (band intensities) of RavS~P were measured after autoradiography. (c–d) c-di-GMP triggered an increase in RavS-RavR phosphotransfer in a dose-dependent manner. (c) Various concentrations of c-di-GMP (0, 5, 10, 15, 30, 50, 75 and 100 μM) were added to the RavS-RavR phosphotransfer reactions. (d) The phosphorylated level of RavS^ΔN~P was quantified by ImageJ and the EC50 value was estimated by Origin 8.5 software. In (b) and (d), the intensity of each data point is the average from three experimental repeats. (e) c-di-GMP triggered increase in RavS-RavR phosphotransfer is highly specific. […] (f) RavS specifically interacts with fl-c-di-GMP. The interaction between RavS^ΔTrM and various nucleotides, including fl-c-di-GMP, fl-cGMP and fl-c-di-AMP, were measured by microscale thermophoresis (MST). A total of 20 nM fluorescein-labelled nucleotides and increasing concentrations of proteins were incubated and measured by MST. The dissociation constant (Kd) was quantified to estimate the binding affinity. Each experiment was repeated three times.
An in vitro autophosphorylation assay was conducted as described in our previous study. Purified protein was incubated with 10 μM ATP containing 10 μCi [γ-^32P]ATP (PerkinElmer, USA) in the reaction buffer (50 mM Tris-HCl, pH 7.8, 25 mM NaCl, 25 mM KCl, 5 mM MgCl2, 2 mM DTT) for the indicated time at 28°C. If necessary, c-di-GMP was added to the mixture at the same time as ATP. For the phosphoryl transfer assay, purified RR protein or its derivative was added into the reaction mixture containing the phosphorylated HK. The autophosphorylation or phosphoryl transfer reaction was terminated by adding 5× SDS-PAGE loading buffer. Phosphorylated proteins were separated by 12% SDS-PAGE. After electrophoresis, gels were exposed to a phosphor screen (GE Healthcare) and the autoradiographic signals were detected by a Typhoon FLA7000 (GE Healthcare).

RavS^ΔTrM = target: T2, RavS^ΔTrM (Xanthomonas campestris pv. campestris, UniProt Q8P9A6); test: microscale thermophoresis (MST) binding; conditions: 20 nM fluorescein-labelled nucleotide
T2 sequence (Q8P9A6 47-697): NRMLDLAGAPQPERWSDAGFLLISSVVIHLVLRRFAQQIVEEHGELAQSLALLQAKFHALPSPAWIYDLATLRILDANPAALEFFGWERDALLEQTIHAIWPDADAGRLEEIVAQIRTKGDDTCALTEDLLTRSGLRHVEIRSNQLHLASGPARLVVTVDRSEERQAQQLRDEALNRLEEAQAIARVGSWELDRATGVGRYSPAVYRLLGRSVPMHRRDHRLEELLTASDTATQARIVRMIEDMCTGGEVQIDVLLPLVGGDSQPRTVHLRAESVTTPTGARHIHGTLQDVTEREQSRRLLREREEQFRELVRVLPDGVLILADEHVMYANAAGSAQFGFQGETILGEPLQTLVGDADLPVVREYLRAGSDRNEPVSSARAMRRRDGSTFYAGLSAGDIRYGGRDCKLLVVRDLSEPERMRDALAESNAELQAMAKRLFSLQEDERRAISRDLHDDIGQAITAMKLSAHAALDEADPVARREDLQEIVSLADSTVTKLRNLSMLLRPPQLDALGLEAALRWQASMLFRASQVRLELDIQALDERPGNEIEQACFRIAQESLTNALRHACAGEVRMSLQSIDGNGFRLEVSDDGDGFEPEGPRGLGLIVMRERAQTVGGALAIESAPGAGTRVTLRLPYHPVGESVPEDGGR
Description: (a) c-di-GMP enhances RavS-RavR phosphotransfer in vitro. A total of 5 μM RavS^ΔN was autophosphorylated for 15 min by the addition of 10 μCi [γ-^32P]ATP. A total of 15 μM RavR^ΔEAL or RavR^ΔEAL(D496A) was added and incubated for 30 min at 25°C. A total of 100 μM c-di-GMP was added if necessary. The reactions were terminated with 5× SDS loading buffer before autoradiography. The experiment was repeated three times. (b) Time course analyses of the impact of c-di-GMP on the velocity of RavS-RavR phosphotransfer. The autophosphorylation and phosphotransfer reactions were set as mentioned in (a). Various concentrations of c-di-GMP were added to the reactions and isotopic signals (band intensities) of RavS~P were measured after autoradiography. (c–d) c-di-GMP triggered an increase in RavS-RavR phosphotransfer in a dose-dependent manner. (c) Various concentrations of c-di-GMP (0, 5, 10, 15, 30, 50, 75 and 100 μM) were added to the RavS-RavR phosphotransfer reactions. (d) The phosphorylated level of RavS^ΔN~P was quantified by ImageJ and the EC50 value was estimated by Origin 8.5 software. In (b) and (d), the intensity of each data point is the average from three experimental repeats. (e) c-di-GMP triggered increase in RavS-RavR phosphotransfer is highly specific. […] The interaction between RavS^ΔTrM and various nucleotides, including fl-c-di-GMP, fl-cGMP and fl-c-di-AMP, were measured by microscale thermophoresis (MST). A total of 20 nM fluorescein-labelled nucleotides and increasing concentrations of proteins were incubated and measured by MST. The dissociation constant (Kd) was quantified to estimate the binding affinity. […]
The interaction between c-di-GMP nucleotides and various proteins was measured by using MST with a fluorescein-labelled c-di-GMP (2′-Fluo-AHC-c-di-GMP, abbreviated as fl-c-di-GMP; 2′-Fluo-AHC-c-di-AMP, fl-c-di-AMP; 2′-Fluo-AHC-cGMP, fl-cGMP; Biolog, Germany). These chemicals contain carboxyfluorescein that has excitation and emission wavelengths of 497 nm and 520 nm, respectively, which can be detected directly by a MST instrument. […]

Compound EAL domain of RavR (domain or fragment) has a stoichiometry N [1] of 2.

With `Nc1nc2c(ncn2[C@@H]2O[C@H](COP(=O)(O)O)[C@@H](O)[C@H]2O)c(=O)[nH]1` [GMP] the “impact on RavS phosphotransferase activity / velocity of RavS-RavR phosphotransfer” value (RavS^ΔN) was “did not affect; also recorded: did not have any impact”.

In the case of 2′-Fluo-AHC-c-di-AMP [fl-c-di-AMP], the “dissociation constant (Kd)” value (RavS^ΔTrM) is reported as “no binding; also recorded: completely failed to bind”.

For `Nc1nc2c(ncn2[C@@H]2O[C@@H]3COP(=O)(O)O[C@H]3[C@H]2O)c(=O)[nH]1` [cGMP], the “impact on RavS phosphotransferase activity / velocity of RavS-RavR phosphotransfer” value (RavS^ΔN) was “did not affect; also recorded: did not have any impact”.

In the case of `Nc1ncnc2c1ncn2[C@@H]1O[C@@H]2COP(=O)(O)O[C@H]3[C@@H](O)[C@H](n4cnc5c(N)ncnc54)O[C@@H]3COP(=O)(O)O[C@H]2[C@H]1O` [c-di-AMP], the “impact on RavS phosphotransferase activity / velocity of RavS-RavR phosphotransfer” value (RavS^ΔN) is reported as “did not affect; also recorded: did not have any impact”.

`Nc1nc2c(ncn2[C@@H]2O[C@H](COP(=O)(O)OP(=O)(O)OP(=O)(O)O)[C@@H](O)[C@H]2O)c(=O)[nH]1` [GTP] was tested, and the “impact on RavS phosphotransferase activity / velocity of RavS-RavR phosphotransfer” value (RavS^ΔN) was “did not affect; also recorded: did not have any impact”.

2′-Fluo-AHC-cGMP [fl-cGMP] was tested, and the Kd (RavS^ΔTrM; read-out: dissociation constant (Kd)) was 64.4 ± 9.43 µM.
